Test results published in ChEMBL document CHEMBL1131556, “The discovery of orally available thrombin inhibitors: studies towards the optimisation of CGH1668” (Bioorg Med Chem Lett, 1998).

Assays:
[1] = Activated partial thromboplastin time (APTT) was determined by the influence on doubling of a human clotting time assay; assay type: functional
[2] = biological target: Prothrombin (Homo sapiens, UniProt P00734); assay: In vitro binding affinity for human thrombin.

Ki [2] [nM]	Structure (SMILES)	Activity [1] [µM]
22	Nc1ccc(C[C@H](NS(=O)(=O)c2cnccc2N[C@@H](Cc2ccccc2)CN2CCOCC2)C(=O)N2CCC(CCF)CC2)cc1	2.9
45	CCN(CC)C[C@H](Cc1ccccc1)Nc1ccncc1S(=O)(=O)N[C@@H](Cc1ccc(N)cc1)C(=O)N1CCC(CCF)CC1	3.56
36	COc1ccc(C[C@H](NS(=O)(=O)c2cnccc2N[C@H](CO)Cc2ccccc2)C(=O)N2CCC(CCF)CC2)cc1	8.1
110	CCC1CCN(C(=O)[C@H](Cc2ccc(N)cc2)NS(=O)(=O)c2cnccc2N[C@H](CO)Cc2ccccc2)CC1	5.5
19	COCCN(CCOC)C[C@H](Cc1ccccc1)Nc1ccncc1S(=O)(=O)N[C@@H](Cc1ccc(N)cc1)C(=O)N1CCC(CCF)CC1	3.7
100	O=C([C@H](Cc1ccccc1)NS(=O)(=O)c1cnccc1N[C@H](CO)Cc1ccccc1)N1CCC(CCF)CC1	11.5
634	Nc1ccc(C[C@H](NS(=O)(=O)c2cnccc2N[C@H](CO)Cc2ccccc2)C(=O)N2CCC(CCO)CC2)cc1	7.4
18	C[C@H](Cc1ccccc1)Nc1ccncc1S(=O)(=O)N[C@@H](Cc1ccc(N)cc1)C(=O)N1CCC(CCF)CC1	7.1
65	O=C([C@H](Cc1ccc(F)cc1)NS(=O)(=O)c1cnccc1N[C@H](CO)Cc1ccccc1)N1CCC(CCF)CC1	11.7
41	O=C([C@H](Cc1ccc(O)cc1)NS(=O)(=O)c1cnccc1N[C@H](CO)Cc1ccccc1)N1CCC(CCF)CC1	1.91
35	CNC[C@H](Cc1ccccc1)Nc1ccncc1S(=O)(=O)N[C@@H](Cc1ccc(N)cc1)C(=O)N1CCC(CCF)CC1	2.4
49	Nc1ccc(C[C@H](NS(=O)(=O)c2cnccc2N[C@H](COCCO)Cc2ccccc2)C(=O)N2CCC(CCF)CC2)cc1	2.5
24	CN(C)C[C@H](Cc1ccccc1)Nc1ccncc1S(=O)(=O)N[C@@H](Cc1ccc(N)cc1)C(=O)N1CCC(CCF)CC1	3.4
72	Nc1ccc(C[C@H](NS(=O)(=O)c2cnccc2N[C@H](CNCCO)Cc2ccccc2)C(=O)N2CCC(CCF)CC2)cc1	2
19	COc1ccc(C[C@@H](CO)Nc2ccncc2S(=O)(=O)N[C@@H](Cc2ccc(N)cc2)C(=O)N2CCC(CCF)CC2)cc1	2.9
39	Nc1ccc(C[C@H](NS(=O)(=O)c2cnccc2N[C@H](CO)Cc2ccccc2)C(=O)N2CCC(CCF)CC2)cc1	2.5
27	Nc1ccc(C[C@H](NS(=O)(=O)c2cnccc2N[C@H](CO)Cc2ccccc2)C(=O)N2CCC(CCCl)CC2)cc1	4.4
24	CC(=O)N1CCN(C[C@H](Cc2ccccc2)Nc2ccncc2S(=O)(=O)N[C@@H](Cc2ccc(N)cc2)C(=O)N2CCC(CCF)CC2)CC1	2.4
43	CCCCNC[C@H](Cc1ccccc1)Nc1ccncc1S(=O)(=O)N[C@@H](Cc1ccc(N)cc1)C(=O)N1CCC(CCF)CC1	5.1
48	Nc1ccc(C[C@H](NS(=O)(=O)c2cnccc2N[C@@H](Cc2ccccc2)CN2CCCC2)C(=O)N2CCC(CCF)CC2)cc1	3.4
19	Nc1ccc(C[C@H](NS(=O)(=O)c2cnccc2N[C@@H](Cc2ccccc2)CN2CCC(O)CC2)C(=O)N2CCC(CCF)CC2)cc1	1.73
33	CNC[C@H](CC1CCCCC1)Nc1ccncc1S(=O)(=O)N[C@@H](Cc1ccc(N)cc1)C(=O)N1CCC(CCF)CC1	2.8
15	COc1ccc(C[C@@H](C)Nc2ccncc2S(=O)(=O)N[C@@H](Cc2ccc(N)cc2)C(=O)N2CCC(CCF)CC2)cc1	9
49	COc1ccc(C[C@@H](CO)Nc2ccncc2S(=O)(=O)N[C@@H](Cc2ccc(N)cc2)C(=O)N2CCC(CCF)CC2)cc1OC	2.5
90	Nc1ccc(C[C@H](NS(=O)(=O)c2cnccc2N[C@@H](Cc2ccccc2)CN2CCNC(=O)C2)C(=O)N2CCC(CCF)CC2)cc1	2.43
99	CCNC[C@H](Cc1ccccc1)Nc1ccncc1S(=O)(=O)N[C@@H](Cc1ccc(N)cc1)C(=O)N1CCC(CCF)CC1	3.2
25	Nc1ccc(C[C@H](NS(=O)(=O)c2cnccc2N[C@@H](Cc2ccccc2)CN2CCCCC2)C(=O)N2CCC(CCF)CC2)cc1	6.1
47	CCCNC[C@H](Cc1ccccc1)Nc1ccncc1S(=O)(=O)N[C@@H](Cc1ccc(N)cc1)C(=O)N1CCC(CCF)CC1	3.3

Structure (SMILES)	Ki [2] [nM]	Activity [1] [µM]
Nc1ccc(C[C@H](NS(=O)(=O)c2cnccc2N[C@H](CO)CC2CCCCC2)C(=O)N2CCC(CCF)CC2)cc1	18	2.6
CNc1ccc(C[C@H](NS(=O)(=O)c2cnccc2N[C@H](CO)Cc2ccccc2)C(=O)N2CCC(CCF)CC2)cc1	12	4.1
